From patent publication US20220226484A1, “THERAPEUTIC PEPTIDES” (COHBAR, INC., priority 2019, published 2022)
Positions of bridges follow the written chain, without caps; N, C: chain ends. Non-standard residues stand in square brackets, D forms with d. Primed or numbered codes have the meaning given here. Chains are numbered I, II in the order given. No end group written: not given here. PEG12′ = not defined here; Nle = CCCC[C@H](N)C(=O)O

Assays:
[1] = tested on: A172 human brain glioblastoma cell line; assay: Caspase 3/7 activity (Caspase-Glo 3/7 Assay); assay type: cell-based; conditions: peptide 10 μM, 18-20 hours, relative to 0.1% DMSO control
Procedure: The effect of the peptides on cell death/survival can be assessed using a caspase-3/7 assay in cultured cells. Peptides were dissolved at 10 mM in DMSO as stock solutions for use at a final concentration of 10 μM. […] Caspase-Glo 3/7 Assay Reagent was purchased from Promega (Madison, Wis.). A172 human brain glioblastoma cell line was purchased from American Type Culture Collection (Manassas, Va.). A172 cells were grown in DMEM supplemented with 10% FBS with 100 IU/ml penicillin and 100 μg/ml streptomycin. Cultures were maintained at 37° C. in a humidified atmosphere of 5% CO2/95% air. A172 cells were seeded at 8,000 cells per well on 96-well plates. […] Caspase 3/7 activity was determined using a Caspase-Glo 3/7 Assay kit (Promega) according to the manufacturer's instructions. Luminescence for each sample well on the plate was measured using a Cytation 3 plate reader (BioTek, Winooski, Vt.). Activity was calculated relative to 0.1% DMSO control.

[2] = tested on: SH-SY5Y Neuroblastoma Cells; assay: ATP levels (CellTiter-Glo); assay type: cell-based, human; conditions: peptide 10 μM, 18-20 hours, relative to 0.1% DMSO treated control
Procedure: The effect of the peptides on cellular metabolism can be assessed using an assay of ATP levels in cultured cells such as human neuroblastoma cells. Peptides were initially prepared as 10 mM stock in DMSO and used at a final concentration of 10 μM (0.1% DMSO). […] CellTiter-Glo® Assay kit was purchased from Promega. SH-SY5Y human bone marrow neuroblastoma cell line was purchased from American Type Culture Collection (Manassas, Va.) and licensed from Memorial Sloan-Kettering Cancer Center (New York, N.Y.). SH-SY5Y cells were grown in DMEM/F12 medium supplemented with 10% FBS with 100 IU/ml penicillin and 100 μg/ml streptomycin. Cultures were maintained at 37° C. in a humidified atmosphere of 5% CO2/95% air. SH-SY5Y cells were seeded at 30,000 cells per well on 96-well plates. […] ATP levels were determined using a CellTiter-Glo Assay kit (Promega) according to the manufacturer's instructions. Luminescence for each sample well on the plate was measured using a Cytation 3 plate reader (BioTek, Winooski, Vt.). Activity was calculated relative to 0.1% DMSO treated control. The relative standard deviation of the result for the 0.1% DMSO treated control was <5%.

3T3-L1 Mouse Adipocytes = assay: Insulin-dependent effect on free fatty acid levels in cultured mouse adipocytes; assay type: cell-based; conditions: 3 hours; for Free Fatty Acid Levels, MEAN % ISO, +Insulin: peptide 10 μM + insulin 0.25 nM, percent of isoproterenol (0.1 nM)+insulin (0.25 nM); for Free Fatty Acid Levels, MEAN % ISO, −Insulin: peptide 10 μM alone, percent of isoproterenol (0.1 nM) treated control cells
Procedure: The effect of the peptides on fatty acid metabolism was assessed in the absence and presence of insulin using an assay of free fatty acid levels in cultured cells such as mouse adipocytes. Peptides were initially prepared as 10 mM stock in DMSO and used at a final concentration of 10 μM (0.1% DMSO). […] Insulin (0.25 nM) was used as a partial inhibitor and insulin (10 nM) was used as a potent inhibitor of isoproterenol stimulated fatty acid production. Mouse 3T3-L1 cells purchased from ZenBio (Research Triangle Park, N.C.) were seeded at 3,000 cells per well on 96-well plates in Pre-Adipocyte Medium (Zen-Bio) and grown to confluence at 37° C. in a humidified atmosphere of 5% CO2/95% air. Two days after confluence, cells were placed in Adipocyte Differentiation Medium (Zen-Bio) and cultured for three additional days at 37° C. in a humidified atmosphere of 5% CO2/95% air. The culture medium was then partially replaced with Adipocyte Maintenance Medium (Zen-Bio) and the cells maintained at 37° C. in a humidified atmosphere of 5% CO2/95% air with partial medium replacement every other day. At 12 day of differentiation, 96-well cultures were transferred to Adipocyte Maintenance Medium without insulin and placed at 37° C. in a humidified atmosphere of 5% CO2/95% air for two days. Following this incubation period, the medium was removed from 14 day differentiated cultures and replaced with Assay Buffer (Zen-Bio) containing peptides (10 μM), insulin (0.25 nM or 10 nM), isoproterenol (0.1 nM) as appropriate. […] isoproterenol was added to all wells except untreated controls. Insulin at 0.1 nM and 10 nM was added to control wells. Peptides (10 μM) in the absence or presence of insulin (0.25 nM) were added to test wells. Cells in the presence of compounds were placed at 37° C. in a humidified atmosphere of 5% CO2/95% air for 3 hours. At the end of the final 3 h incubation, conditioned assay buffer was removed from each well and place in a fresh 96-well plate for quantitation of free fatty acid content. Free fatty acid concentrations in the assay buffer samples were determined using a Free Fatty Acid Assay kit (Zen-Bio) according to the manufacturer's instructions using a Cytation 3 plate reader at 540 nm (BioTek, Winooski, VD. Absorbance values were corrected for untreated background and expressed as a percent of isoproterenol (0.1 nM) treated control cells for peptides alone or isoproterenol (0.1 nM)+insulin (0.25 nM) for peptides in presence of insulin (0.25 nM). Treatment with isoproterenol […] alone was used as the free fatty acid level stimulatory control. The relative standard deviation of the isoproterenol control was <10%. […] Free fatty acid levels for insulin (10 nM) treatment were <5% of the isoproterenol control value. Free fatty acid levels for insulin (0.25 nM) treatment were 60-80% of the isoproterenol control value.

Substance | Caspase 3/7 Activity, Percent of Control Activity [1] | ATP Levels, % Control [2] | Free Fatty Acid Levels, MEAN % ISO, +Insulin (3T3-L1 Mouse Adipocytes) | Free Fatty Acid Levels, MEAN % ISO, −Insulin (3T3-L1 Mouse Adipocytes) | Free Fatty Acid Levels, MEAN % ISO, +Insulin (3T3-L1 Mouse Adipocytes; listed as 5) | Free Fatty Acid Levels, MEAN % ISO, −Insulin (3T3-L1 Mouse Adipocytes; listed as 5)
MRVIRMCLGVGLLGDLAG [SEQ ID NO: 2] | 109.3% | 99.6% | 60.5% | 98.8% | – | –
R(dA)IR(Nle)SLNVGLLGEL(dA) (R[dA]IR[Nle]SLNVGLLGEL[dA]) [SEQ ID NO: 15] | – | – | 112.6% | 97.6% | – | –
RVIR(Nle)CLNVGLLGEL(dA)G (RVIR[Nle]CLNVGLLGEL[dA]G) [SEQ ID NO: 6] | – | – | 66.9% | 93.6% | – | –
RVIR(Nle)SLNVGLEGEL(dA) (RVIR[Nle]SLNVGLEGEL[dA]) [SEQ ID NO: 14] | – | – | 71.9% | 89.9% | – | –
RVIR(Nle)SLNVGLLGEL(dA)G (RVIR[Nle]SLNVGLLGEL[dA]G) [SEQ ID NO: 8] | – | – | 74.9% | 69.3% | – | –
RVIRMCLGVGLLGDL(dA)G (RVIRMCLGVGLLGDL[dA]G) [SEQ ID NO: 4] | 112.4% | 104.7% | 36.6% | 92.9% | – | –
RVIRMCLGVGLLGDLAG (disulfide I:6-II:6) [SEQ ID NO: 26] | – | – | 33.4% | 93.5% | – | –
RVIRMCLGVGLLGDLAG [SEQ ID NO: 3] | 109.4% | 101.5% | 37.1% | 98.0% | – | –
RVIRMCLGVGLLGDLAGK{PEG12} (RVIRMCLGVGLLGDLAGK(PEG12′)) [SEQ ID NO: 17] | – | – | 35.9% | 102% | – | –
RVIRMCLGVGLLGDLAGK{PEG12} (chain 1 RVIRMCLGVGLLGDLAGK(PEG12′); chain 2 RVIRMCLGVGLLGDLAGK(PEG12′); disulfide I:6-II:6) [SEQ ID NO: 28] | – | – | 33.4% | 80.7% | – | –
RVIRMCLNNGLLGEL(dA)G (RVIRMCLNNGLLGEL[dA]G) [SEQ ID NO: 9] | – | – | 41.0% | 95.2% | – | –
RVIRMCLNNGLNGEL(dA)E (RVIRMCLNNGLNGEL[dA]E) [SEQ ID NO: 23] | – | – | 43.9% | 99.4% | – | –
RVIRMCLNVGLLGEL(dA)E (RVIRMCLNVGLLGEL[dA]E) [SEQ ID NO: 12] | – | – | 41.2% | 92.8% | – | –
RVIRMCLNVGLLGEL(dA)G [SEQ ID NO: 5] (RVIRMCLNVGLLGEL[dA]G) | 107.0% | 100.8% | – | – | 37.0% | 94.3%
RVIRMCLNVGLNGEL(dA)G (RVIRMCLNVGLNGEL[dA]G) [SEQ ID NO: 11] | – | – | 44.0% | 65.5% | – | –
RVIRMCLNVGNLGEL(dA)G (RVIRMCLNVGNLGEL[dA]G) [SEQ ID NO: 10] | – | – | 63.2% | 90.7% | – | –
RVIRMSLNVGLEGEL(dA) (RVIRMSLNVGLEGEL[dA]) [SEQ ID NO: 13] | – | – | 78.4% | 89.5% | – | –
RVIRMSLNVGLLGEL(dA)G (RVIRMSLNVGLLGEL[dA]G) [SEQ ID NO: 7] | – | – | 74.5% | 91.1% | – | –
